The source of these data is paper PMC11876671, “Investigating blood–brain barrier penetration and neurotoxicity of natural products for central nervous system drug development” (Scientific Reports, 2025).

Some results are limits rather than exact numbers.

Assay in the first data set: not given
Conditions: not given
Regarding `COc1cc2c(c3oc(=O)c4c(c13)CCC4=O)[C@@H]1C=CO[C@@H]1O2` [AFLATOXIN B1], the “PAMPA-BBB Pe(10^-6 cm/sec)” value is recorded as 7.2 10^-6 cm/sec. `COc1cc2c(c3oc(=O)c4c(c13)CCOC4=O)C1C=COC1O2` (centres unmarked) [AFLATOXIN G1]: the “PAMPA-BBB Pe(10^-6 cm/sec)” value is on record as <1 10^-6 cm/sec. In the case of `COc1cc2c(c3oc(=O)c4c(c13)CCC4=O)[C@@H]1CCO[C@@H]1O2` [DIHYDROAFLATOXINE B1], the “PAMPA-BBB Pe(10^-6 cm/sec)” value is listed as 2.8 10^-6 cm/sec.

Staying with this data set, now noted: PAMPA.
As for `O=C(N[C@H](CO)[C@H](O)c1ccc([N+](=O)[O-])cc1)C(Cl)Cl` [CHLORAMPHENICOL], the “PAMPA-BBB Pe(10^-6 cm/sec)” value was 3.5 10^-6 cm/sec. Turning to `Cc1nccc2c1[nH]c1ccccc12` [HARMAN], the “PAMPA-BBB Pe” value was 60 10^-6 cm/sec.

Still in this data set, the particulars now being: Table S2: compounds exhibiting moderate to high PAMPA-BBB permeability.
For `COc1cc(OC)c2c(c1Cl)O[C@]1(C2=O)[C@H](C)CC(=O)C[C@@H]1OC` [NCGC00016380-01], the “PAMPA-BBB Pe” value is recorded as 31 10^-6 cm/sec. For the molecule `COc1ccc(C(=O)OC2C[C@H]3CC[C@H](C2)N3C)cc1OC` (some centres unmarked) [NCGC00016471-04], the “PAMPA-BBB Pe” value is 16 10^-6 cm/sec.

On to `COC(=O)c1c(C)c2c(c(C)c1O)OC(=O)c1c(C)c(Cl)c(O)c(Cl)c1O2` [NCGC00095464-04], for which the “PAMPA-BBB Pe” value was 281 10^-6 cm/sec. The same measure, in the same setting: the result for `COC(=O)c1c(OC)cc2c(c1C)Oc1c(Cl)c(O)c(Cl)c(C)c1C(=O)O2` [NCGC00095466-04] reads 27 10^-6 cm/sec; that for `COc1ccc(-c2coc3cc(O)ccc3c2=O)c(O)c1O` [NCGC00095474-02], 14 10^-6 cm/sec.

Consider `CCOC(=O)c1c(C)cc(O)c(C=O)c1O` [NCGC00095517-01], for which the “PAMPA-BBB Pe” value is 110 10^-6 cm/sec. Still for that read-out and setting: the result for `CCOC(=O)c1c(C)cc(OC)cc1O` [NCGC00095529-01] reads 290 10^-6 cm/sec.

In the case of `COc1cc2c(cc1OC)C(=O)OC2` [NCGC00095581-04], the “PAMPA-BBB Pe” value was 12 10^-6 cm/sec. On the same count and under the same terms, the result for `CC(=O)Oc1ccc(/C=C/c2cc(OC(C)=O)cc(OC(C)=O)c2)cc1` [NCGC00095675-03] reads 200 10^-6 cm/sec; that for `COc1cc(OC)c2c(c1)OC(c1ccccc1)CC2=O` (centres unmarked) [NCGC00142553-05], 176 10^-6 cm/sec.

`CCCCCc1c2c(cc(O)c1C(=O)O)OC(=O)c1cc(C(=O)CCCC)c(OC)cc1O2` [NCGC00160140-01]: the “PAMPA-BBB Pe” value was 120 10^-6 cm/sec.

For the molecule `COc1ccc([C@@H](C)C(=O)c2ccc(O)cc2O)cc1` [NCGC00160149-03], the “PAMPA-BBB Pe” value was 345 10^-6 cm/sec. The same measure, in the same setting: the result for `COc1cc2c(cc1OC)-c1cc3cc(OC)c(OC)cc3c(=O)n1CC2` [NCGC00160189-01] reads 232 10^-6 cm/sec; that for `COc1cc(=O)n(C)c2c(OCC3OC(C)(C)OC3(C)C)cccc12` (centres unmarked) [NCGC00160200-01], 106 10^-6 cm/sec; that for `COc1cccc2c(=O)c3ccoc3n(C)c12` [NCGC00160208-01], 54 10^-6 cm/sec.

For `CN(C)CCc1cc2c(c3c1ccc1ccccc13)OCO2` [NCGC00160247-01], the “PAMPA-BBB Pe” value is 27 10^-6 cm/sec.

On to `C/C=C/c1ccc(OC(C)[C@@H](O)c2ccc(O)c(OC)c2)c(OC)c1` (some centres unmarked) [NCGC00160251-01], for which the “PAMPA-BBB Pe” value is 150 10^-6 cm/sec.

Regarding `COc1ccc(C(=O)OC2CC3CC[C@H](C2)N3C(C)=O)cc1OC` (some centres unmarked) [NCGC00160255-01], the “PAMPA-BBB Pe” value is recorded as 22 10^-6 cm/sec. In the case of `O=C1CCC[C@H]2[C@H]3CCCN4CCCC(=CN12)[C@@H]34` [NCGC00160276-01], the “PAMPA-BBB Pe” value is 33 10^-6 cm/sec.

With `COc1cc2c(cc1OC)C(C(=O)c1ccc(OC)c(OC)c1O)=NCC2` [NCGC00160282-01], the “PAMPA-BBB Pe” value is 19 10^-6 cm/sec. Same read-out and setting: the result for `c1cnc2c(-c3nccc4c3[nH]c3ccccc34)cccc2c1` [NCGC00160283-01] reads 352 10^-6 cm/sec; that for `CC1=CC(=O)C2=C(C)C[C@@H]3OC(=O)[C@@H](C)[C@H]3C=C12` [NCGC00160288-01], 74 10^-6 cm/sec; that for `COC(=O)C1=CO[C@@H](C)[C@@H]2CN3CC[C@]4(C(=O)Nc5c4ccc(OC)c5OC)[C@H]3C[C@H]12` [NCGC00160292-01], 46 10^-6 cm/sec. As to `COc1cc(/C=C/C(=O)c2ccc(O)cc2O)ccc1O` [NCGC00163564-01], the “PAMPA-BBB Pe” value is given as 188 10^-6 cm/sec. Still for that read-out and setting: the result for `C/C=C(/C)C(=O)O[C@H]1CC(C)=CC(=O)[C@@]2(C)CC[C@@](O)(C(C)C)[C@H]12` [NCGC00163582-01] reads 125 10^-6 cm/sec; that for `COc1cc(C(=O)O[C@H]2CC(C)=CCC/C(C)=C/[C@@H](O)C2C(C)C)ccc1O` (some centres unmarked) [NCGC00163636-01], 88 10^-6 cm/sec; that for `C[C@@H]1O[C@@H](O[C@H]2CC[C@@H](O[C@H]3[C@H](O)C[C@H](c4ccc5c(c4O)C(=O)C4=C(C5=O)[C@@]5(O)C(=O)C[C@](C)(O[C@H]6CC[C@H](O[C@H]7C=CC(=O)[C@H](C)O7)[C@H](C)O6)C[C@@]5(O)C=C4)O[C@@H]3C)O[C@H]2C)C=CC1=O` [NCGC00163640-01], 17 10^-6 cm/sec. Same read-out and setting: the result for `CC(=O)OC(C)(C)[C@@H]1Cc2cc3ccc(=O)oc3cc2O1` [NCGC00178115-02] reads 128 10^-6 cm/sec; that for `COc1cc2c(cc1-c1coc3c4c(c(OC)cc3c1=O)OC(C)(C)C=C4)OCO2` [NCGC00178961-03], 146 10^-6 cm/sec; that for `COc1ccc2c(c1)O[C@@H]1COc3cc(OC)c(OC)cc3[C@@H]1C2=O` [NCGC00178970-02], 355 10^-6 cm/sec.

The same data set, now with this note: Table S3: compounds exhibiting low PAMPA-BBB permeability.
For the molecule `N[C@H](C(=O)O)c1ccc(O)c(C(=O)O)c1` [NCGC00024539-02], the “PAMPA-BBB Pe(10^-6 cm/sec)” value was <1 10^-6 cm/sec. On to `COc1ccc(C(=O)CC(=O)O)c2c1C=CC(C)(C)O2` [NCGC00074767-03], for which the “PAMPA-BBB Pe(10^-6 cm/sec)” value is listed as <1 10^-6 cm/sec. On the same count and under the same terms, the result for `O=C(O)c1cc2ccccc2[nH]1` [NCGC00094957-03] reads <1 10^-6 cm/sec; that for `Cc1cc(O)c(C)c(O)c1C(=O)O` [NCGC00095485-03], <1 10^-6 cm/sec; that for `O=C/C=C/c1ccc(O)cc1` [NCGC00095729-01], 4.5 10^-6 cm/sec. Take `COc1ccc(C2CC(=O)c3ccc(OC)cc3O2)cc1` (centres unmarked) [NCGC00095734-01]: the “PAMPA-BBB Pe(10^-6 cm/sec)” value is listed as 5.8 10^-6 cm/sec.

As for `Cc1cc(O)c(C=O)c(O)c1C(=O)O` [NCGC00095742-01], the “PAMPA-BBB Pe(10^-6 cm/sec)” value is given as 2.7 10^-6 cm/sec. Same read-out and setting: the result for `COc1cc(C/C=C\c2ccccc2)c(OC)cc1O` [NCGC00160148-01] reads 1.3 10^-6 cm/sec; that for `O=C(NC[C@H](O)c1ccccc1)c1ccccc1` [NCGC00160191-01], <1 10^-6 cm/sec; that for `COc1c(O)cc2c(=O)oc3c(OC)c(O)cc4c(=O)oc1c2c34` [NCGC00160203-01], <1 10^-6 cm/sec. Still for that read-out and setting: the result for `COc1cc2oc(=O)c3c4c(cc5ccc(c1CCN(C)C)c2c53)OCO4` [NCGC00160212-01] reads <1 10^-6 cm/sec; that for `COc1c2ccoc2nc2c(OC)c(O[C@@H]3O[C@H](C)[C@@H](O)[C@@H](O)[C@H]3O)ccc12` [NCGC00160235-01], <1 10^-6 cm/sec; that for `Cn1c2c(c(=O)c3ccccc31)C[C@@H](O)C(C)(C)O2` [NCGC00160238-01], <1 10^-6 cm/sec. For `COc1ccc([C@@H]2[C@@H](O)[C@H](O)[C@@H](C)N2C)cc1OC` [NCGC00160242-01], the “PAMPA-BBB Pe(10^-6 cm/sec)” value is on record as 1.3 10^-6 cm/sec. As for `O=C1N[C@@H](Cc2c[nH]c3ccccc23)C(=O)N[C@H]1Cc1c[nH]c2ccccc12` [NCGC00160254-01], the “PAMPA-BBB Pe(10^-6 cm/sec)” value is <1 10^-6 cm/sec. As for `C/C=C(\C)C(=O)O[C@H]1CC(C)=C2C(=O)C=C(C)C2[C@@H]2OC(=O)[C@@](C)(OC(=O)C=C(C)C)C21` (some centres unmarked) [NCGC00160270-01], the “PAMPA-BBB Pe(10^-6 cm/sec)” value is recorded as 5.7 10^-6 cm/sec. The same measure, in the same setting: the result for `Cc1cc(O)c2c(c1O)C(=O)C(O)=C(O)C2=O` [NCGC00160271-01] reads 4.8 10^-6 cm/sec; that for `CNCCCCc1cnc(C)c2[nH]c3ccccc3c12` [NCGC00160349-01], <1 10^-6 cm/sec. As for `COC(=O)C(O)C(O)(CCC(C)C)C(=O)OC1C(OC)=CC23CCCN2CCc2cc4c(cc2C13)OCO4` (centres unmarked) [NCGC00161614-01], the “PAMPA-BBB Pe(10^-6 cm/sec)” value was <1 10^-6 cm/sec. Same read-out and setting: the result for `Cn1cnc2c(ncn2[C@@H]2O[C@H](CO)[C@@H](O)[C@H]2O)c1=N` [NCGC00163305-01] reads <1 10^-6 cm/sec; that for `Nc1ncnc2c1ncn2[C@@H]1O[C@H](COP(=O)(O)OP(=O)(O)OC[C@H]2OC(O)[C@H](O)[C@@H]2O)[C@@H](O)[C@H]1O` (some centres unmarked) [NCGC00163321-01], <1 10^-6 cm/sec. The same measure, in the same setting: the result for `COc1ccc2[nH]cc(CCO)c2c1` [NCGC00163352-01] reads 9.4 10^-6 cm/sec; that for `C[C@]12O[C@H](C[C@@]1(O)C(=O)O)n1c3ccccc3c3c4c(c5c6ccccc6n2c5c31)CNC4=O` [NCGC00163504-01], <1 10^-6 cm/sec; that for `COc1cc2oc(=O)ccc2cc1O` [NCGC00163577-02], 2.2 10^-6 cm/sec. On the same count and under the same terms, the result for `C[C@@H]1OC(O[C@H]2[C@H](Oc3cc(O)c4c(=O)c(O)c(-c5ccc(O)cc5)oc4c3)O[C@H](CO)[C@@H](O)[C@@H]2O)[C@H](O)[C@H](O)[C@H]1O` (some centres unmarked) [NCGC00163581-01] reads <1 10^-6 cm/sec; that for `OC1c2ccccc2N=C2CCCN21` (centres unmarked) [NCGC00163606-01], 5.3 10^-6 cm/sec; that for `COc1cc(-c2oc3cc(O)cc(O)c3c(=O)c2O[C@@H]2O[C@H](CO)[C@@H](O)[C@H](O)[C@H]2O)cc(OC)c1O` [NCGC00163630-01], <1 10^-6 cm/sec.

In the case of `COC1=C(O)C(=O)c2c(cc3oc(C(C)=O)c(O)c3c2O)C1=O` [NCGC00178066-02], the “PAMPA-BBB Pe(10^-6 cm/sec)” value was <1 10^-6 cm/sec.

Another data set is described as follows: in vitro. Conditions: PAMPA, PAMPA-BBB Pe(10^-6 cm/sec), Table S3: compounds exhibiting low PAMPA-BBB permeability. On the technique in general: PAMPA measures passive passage across an artificial lipid membrane.
The Papp is the rate of passage across a membrane or cell layer, normalised by area and donor concentration. A high value points to fast passage. With `COC1=C[C@@H]2C3=C([C@@H]2C1=O)[C@@H](NC(C)=O)CCc1cc(OC)c(OC)c(OC)c13` [β-Lumicolchicine], the Papp was 3.6 ×10⁻⁶ cm/s.

The data set is the same for the next values; noted with them: PAMPA, PAMPA-BBB Pe, Table S2: compounds exhibiting moderate to high PAMPA-BBB permeability.
Consider `COC(=O)/C=C\C(=O)O` [[…]], for which the Papp was 48 ×10⁻⁶ cm/s.
